Patent US20250154288A1, “CYTOTOXICITY TARGETING CHIMERAS FOR C-C CHEMOKINE RECEPTOR 2-EXPRESSING CELLS” (GLAXOSMITHKLINE INTELLECTUAL PROPERTY DEVELOPMENT LIMITED, priority 2022, published 2025)

Columns and labels:
[1] = Blood drug concentration analysis (LC-MS/MS) in In Vivo Depletion Assay; details: human CCR2 (hCCR2) knock-in, 057 background, mouse, whole blood, hCCR2 knock-in mice, IV 0.1 mpk compound + 10 mpk anti-cotinine antibody, 48 hours post-dose, read-out: Exposure of Compound of Formula (I) 48 hours post-dose
Description: (§1) Human CCR2 (hCCR2) knock-in mice (057 background) were dosed intravenously with a PBS solution containing a compound of Formula (I) to measure depletion of CCR2 expressing cells in peripheral blood. Peripheral blood from IV dosed mice was also analyzed to determine PK properties of the ARM compounds of Formula (I).
(§2) Administration to Animal: Solution formulation of antibody and compound of Formula (I) was injected (bolus injection) to the restrained mouse in the right/left lateral tail vein. Animals were dosed with 0.1 milligram per kilogram (mpk) of the compound of Formula (I) and 10 mpk of the anti-cotinine antibody.
Collection of Blood for PK: Blood was collected at time points 0.25 hour, 2 hours, and […] following administration (50 μL/time point) through retro-orbital bleeding under mild isoflurane anesthesia.
(§3) Terminal bleeding at end of experiment (48 hr): Approximately 250 μL of blood in K2EDTA tube and approximately 250 μL of blood in SST (serum separation tube) was collected from each mouse through retro-orbital bleeding under deep isoflurane anesthesia. After bleeding, each mouse was sacrificed by cervical dislocation. The blood distribution at termination was determined as follows: • For PK: 50 μL of K2EDTA blood was transferred to another tube for PK • Flow cytometry: Remaining blood (˜200 μL) was used for flow cytometry analysis. • For serum collection: serum separator tubes (BD) were centrifuged at 4° C., 5000 rpm for 15 minutes. Approximately 100 μL serum was separated and stored at −80° C. for further usage. • Blood drug concentration: Samples collected at the various timepoints (0.25 hr, 2 hr, 24 and 48 hr) were analyzed to determine blood drug concentration.
Drug concentration in blood samples was determined by an LC-MS/MS-based bioanalytical method developed at Syngene. Samples were analyzed on Q-Trap, API-5500 LC-MS/MS system coupled with Exion UHPLC system from SCIEX, USA operated in multiple reaction monitoring mode employing electrospray ionization technique in positive polarity. Analyte and internal standard peaks were resolved on Synergi Polar, 75×2.0 mm, 4μ column using mobile phase 10 mM Ammonium acetate in Milli-Q water as phase A and 0.1% Formic acid in acetonitrile as Phase B. Gradient elution was performed with initial composition 95% Phase A at 0.0 min, holding it for 0.2 minutes, ramping to 5% by 1.0 minute, keeping the same for next 0.5 minutes and coming back to 95% by 1.6 minutes. The total run time was 2 minutes.
Working dilutions for calibration curve and quality control standards were prepared by serially diluting 20 mg/mL stock solution with DMSO. Spiked concentrations for calibration curve in the whole blood ranged from 1 ng/mL to 1000 ng/mL. The working solution of internal standard (Verapamil, 25 ng/mL) was prepared in acetonitrile. 10 μL of the study sample and calibration curve, quality control, and blank whole blood samples were aliquoted in 96 deep well plates for processing. 10 μL of Milli-Q water was added to all the samples and briefly vortexed to initiate complete hemolysis. 10 μL of 20 mM dithiothreitol (OTT) was added to all the samples and incubated for 30 minutes at 37° C. The addition of DTT enhanced the recovery of ARM compounds of Formula (I) from the biological matrix. 300 μL of working internal standard solution was added to all samples except total blank and wash samples, where 300 μL of acetonitrile was added. All the samples were vortex mixed for 5 minutes, followed by centrifugation at 4000 rpm for 10 minutes at 4° C. Supernatants were transferred to the loading plate and injected 3 μL to LC-MS/MS system for analysis. The results are shown below in Table 4 and are reported as compound exposure 48 hours post-dose

[2] = system: CCR2 expressing cells (CD11b+Ly6c+ Hi) in peripheral blood; test: In Vivo Depletion Assay (flow cytometry of peripheral blood); design: species or system Human CCR2 (hCCR2) knock-in mice; details: hCCR2 knock-in mice; IV 0.1 mpk compound + 10 mpk anti-cotinine antibody (mouse IgG2a Fc); peripheral blood at 48 hr
Description: as §1
Stock solution preparation: Stock solutions of compounds of Formula (I) were prepared at 20 mg/mL and 100 mg/mL in DMSO for PK/PD and dose tolerability studies respectively. Stock solutions were stored at −20° C. until further usage.
Formulations preparation: On the day of experiment, the stock solution of the compound of Formula (I) was removed from storage at −20° C. and thawed at room temperature. Anti-cotinine antibody having a heavy chain sequence of SEQ ID NO: 13 and a light chain sequence of SEQ ID NO: 14 (rabbit variable region sequence with mouse IgG2a Fc domain), if required was removed from storage at −80° C. and thawed at room temperature. Antibody vials were immediately transferred into wet ice after thawing. Compounds of Formula (I) were further diluted in DMSO as per experimental requirements.
Formulation composition: The formulation composition was Saline: DMSO: PBS. Saline was added based on the quantity required and then stock solution of the compound of Formula (I) prepared in DMSO, followed by addition of antibody in PBS. Formulations were incubated at room temperature for 30 minutes before administration to the mouse. DMSO was used at 1 to 2% (v/v) in the final formulation.
as §2, §3
CCR2 depletion in peripheral blood was determined by flow cytometry. Briefly, peripheral blood was collected from all animals at the end of study termination and processed. Blood samples were lysed using 1×RBC Lysis buffer and the resulting cell pellet was washed twice in FACS buffer (HBSS containing 5% FBS). Cells were subjected to Fc blocking using mouse Fc block from Biolegend (Trustain, anti-mouse CD16/32, Cat: 101319) to block non-specific binding followed by surface staining for immune markers (CD45, CD3, CD11b, Ly6C, human CCR2). Surface staining was done for 30 minutes in ice and cells were washed twice to remove unbound antibodies. Cells were stained with 7AAD to determine viability and acquired on BD FACSVerse flow cytometer. Appropriate FMO controls and single-color controls were included in the experiment for gating and compensation respectively.
Percent depletion of CD11b+Ly6c+ Hi cells and CCR2 expression for the different treatment groups was determined. The results are shown below in Table 4 and are reported as percent (%) depletion of CCR2 expressing cells.

[3] = molecular target: T1, CHOK1 cells engineered to overexpress human CCR2 (Homo sapiens, UniProt P41597); test: Antibody Dependent Cellular Cytotoxicity (ADCC) Reporter Assay; assay type: cell-based; details: with anti-cotinine antibody (human IgG1 Fc, S239D/I332E); Jurkat FcγRIIIa NFAT-luciferase reporter cells; average if several runs; read-out: ADCC Reporter Assay pEC50 (converted)
T1 construct: expressed in transfected cells; host or cells: CHOK1
Description: An antibody dependent cellular cytoxocity reporter assay was conducted using the following four assay components: (i) ARM compound of Formula (I) targeting CCR2 (concentrations ranging from 1 pM to 10 μM) (ii) anti-cotinine antibody having a heavy chain sequence of SEQ ID NO: 11 and a light chain sequence of SEQ ID NO: 12 (rabbit variable region with human IgG1 Fc domain containing a DE mutation (S239D/I332E)) (concentrations ranging from 0.01 μg/mL to 200 μg/mL); (iii) target cells: CHOK1 cells engineered to overexpress either human CCR2 (typically 1000-20,000 cells per well) and (iv) reporter cells: Jurkat cells engineered to express FcγRIIIa with the reporter gene luciferase under the control of the NFAT promoter (typically 3000-75,000 cells per well). Reagents were combined in a final volume of 20 μL in a 384-well tissue culture treated plate. All four assay components were incubated together for about 12-18 hours. Thereafter, BioGlo Detection reagent (Promega) was added to the wells to lyse the cells and provide a substrate for the luciferase reporter protein. Luminescence signal was measured on a microplate reader and signal:background was calculated by dividing the signal of a test well by the signal obtained when no heterobivalent compound of Formula (I) was added. EC50 calculations were done using Graphpad Prism Software, specifically a nonlinear regression curve fit (Y=Bottom+(Top−Bottom)/(1+10 ^((Log EC50−X)*HillSlope))).
ARMs compounds of Formula (I) of the invention were tested for ADCC activity in the above assay in or more experimental runs and the results are shown in Table 3 below. Potency of the compounds of Formula (I) of the invention is reported as a pEC50 value. The pEC50 value is the negative log of the EC50 value, wherein the EC50 value is the half maximal effective concentration measured in molar (M). For compounds tested in more than one experimental run, the pEC50 value is reported as an average.

Row | Structure (SMILES) | concentration at 48 h [1] [ng/mL] | % Depletion of CCR2 expressing cells [2] [%] | EC50 [3] [pM]
1 | CO[C@@H]1COCC[C@@H]1N[C@@H]1CC[C@](CCCNC(=O)[C@H]2CC[C@H](NC(=O)CCCO[C@H]3CC[C@@H](OCCNC(=O)[C@H]4CC(=O)N(C)[C@@H]4c4cccnc4)CC3)CC2)(C(=O)N2CCc3ncc(C(F)(F)F)cc3C2)C1 [Example 5, (2S,3S)-N-(2-(((1S,4R)-4-(4-(((1S,4R)-4-((3-((1S,3R)-3-(((3S,4S)-3-Methoxytetrahydro-2H-pyran-4-yl)amino)-1-(3-(trifluoromethyl)-5,6,7,8-tetrahydro-1,6-naphthyridine-6-carbonyl)cyclopentyl)propyl)carbamoyl)cyclohexyl)amino)-4-oxobutoxy)cyclohexyl)oxy)ethyl)-1-methyl-5-oxo-2-(pyridin-3-yl)pyrrolidine-3-carboxamide] | 95.4 | 98.41 | 158
2 | CO[C@@H]1COCC[C@@H]1N[C@@H]1CC[C@@](C(=O)N2CCc3nc(CCCCNC(=O)[C@H]4CC[C@H](NC(=O)CCCO[C@H]5CC[C@H](OCCNC(=O)[C@H]6CC(=O)N(C)[C@@H]6c6cccnc6)CC5)CC4)c(C(F)(F)F)cc3C2)(C(C)C)C1 [Example 12, (2S,3S)-N-(2-(((1R,4S)-4-(4-(((1r,4R)-4-((4-(6-((1S,3R)-1-Isopropyl-3-(((3S,4S)-3-methoxytetrahydro-2H-pyran-4-yl)amino)cyclopentane-1-carbonyl)-3(trifluoromethyl)-5,6,7,8-tetrahydro-1,6-naphthyridin-2-yl)butyl)carbamoyl)cyclohexyl)amino)-4oxobutoxy)cyclohexyl)oxy)ethyl)-1-methyl-5-oxo-2-(pyridin-3-yl)pyrrolidine-3 carboxamide] | 33.3 | 95.4 | 631
